# In patent publication EP3575287A1, “INHIBITORS OF N-ACYLPHOSPHATIDYLETHANOLAMINE PHOSPHOLIPASE D (NAPE-PLD)” (Universiteit Leiden, priority 2018, dated 2019):
# Target: T1, human NAPE-PLD (Homo sapiens, UniProt Q6IQ20)
# T1 construct: Full length human cDNA NAPE-PLD was obtained from Natsuo Ueda; made in house; host or cells: HEK293T cells, transient transfection (pcDNA3.1); membrane fraction used
# Assay: In vitro NAPE-PLD activity assay
# Format: biochemical
# Conditions: membrane protein fraction of HEK293T cells overexpressing human NAPE-PLD; substrate PED6 1 µM; 30 minutes preincubation at 37 °C
# Method: Full length human cDNA NAPE-PLD was obtained from Natsuo Ueda^1 and cloned into mammalian expression vector pcDNA3.1, containing a C-terminal Flag-tag and genes for ampicillin and neomycin resistance. All plasmids were grown in XL-10 Z-competent cells and prepped (Maxi Prep, Qiagen). Sequence analysis for the confirmation of the sequences was performed at the Leiden Genome Technology Centre.
# HEK293T were cultured at 37 °C and 7% CO2 in DMEM (Sigma Aldrich, D6546) with glutamax, penicillin (100 µg/ml), streptomycin (100 µg/ml) and 10% New Born Calf Serum iron supplemented (Hyclone SH30072.03). Cells were passaged twice a week to appropriate confluence.
# 24 hours before transfection 10^7 cells are seeded on a 15 cm dish. Two hours before transfection medium is refreshed, low volume. Transfection is performed with PEI in a ratio of 3:1 with human NAPE-PLD or Mock pcDNA3.1 Neo, 20 µg per dish. Medium is refreshed after 24 hours and cells are harvested after 72 hours.
# Cell pellets are re-suspended in lysis buffer: 20 mM Hepes, 2 mM DTT, 0.25 M sucrose, 1 mM MgCl2, 2.5 U/ml benzonase and incubated 30 minutes on ice. The cytosolic fraction (supernatant) is separated from the membranes by ultra-centrifugation (32000 rpm for 30 minutes 100,000g). The pellet is resuspended in storage buffer: 20 mM Hepes, 2 mM DTT (membrane fraction). All samples are stored at -80°C. Enzyme concentrations are determined using a Bradford assay.
# The NAPE-PLD activity assay is based on a previously reported method with small alterations.^2 The membrane protein fraction from transient overexpression of human NAPE-PLD in HEK293T cells was diluted to 0.4 mg/ml in assay buffer: 50 mM Tris-HCl (pH 7.5), 0.02% Triton X-100, 150 mM NaCl. The substrate PED6 (Invitrogen) 1 mM stock was consecutively diluted in DMSO (10x) and in assay buffer (10x) to make a 10 µM working solution. […] The assay is performed in a dark Greiner 96 wells plate, end volume 100 µl. The compound or DMSO is incubated with membrane protein lysate (final concentration 0.04 mg/ml) for 30 minutes at 37 °C. […] Mock lysate with DMSO is used for background substraction. IC50 curves are generated used Graphpad Prism v6.
# T1 sequence (Q6IQ20 whole entry): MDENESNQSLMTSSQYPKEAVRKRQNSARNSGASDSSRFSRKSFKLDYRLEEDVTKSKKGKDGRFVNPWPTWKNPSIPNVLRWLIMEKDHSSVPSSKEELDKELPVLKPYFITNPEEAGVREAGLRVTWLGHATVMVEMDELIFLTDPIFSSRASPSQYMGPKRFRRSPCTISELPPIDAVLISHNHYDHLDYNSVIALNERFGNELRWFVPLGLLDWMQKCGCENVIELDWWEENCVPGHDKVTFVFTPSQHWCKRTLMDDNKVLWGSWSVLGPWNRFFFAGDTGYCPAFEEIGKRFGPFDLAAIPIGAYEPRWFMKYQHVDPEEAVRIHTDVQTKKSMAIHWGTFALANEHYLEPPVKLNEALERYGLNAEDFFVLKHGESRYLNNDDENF
row,IC50 [nM],Structure (SMILES)
1,302,"CN(CCc1ccccc1)c1nc(C(=O)NCC2CC2)cc(N2CC[C@@H](O)C2)n1 [Example 38, (R)-N-(cyclopropylmethyl)-6-(3-hydroxypyrrolidin-1-yl)-2-(methyl(phenethyl)amino)pyrimidine-4-carboxamide]"
2,234,"CN(CCc1ccccc1)c1nc(C(=O)NCC2CC2)cc(N2CC[C@H](O)C2)n1 [Example 39, (S)-N-(cyclopropylmethyl)-6-(3-hydroxypyrrolidin-1-yl)-2-(methyl(phenethyl)amino)pyrimidine-4-carboxamide]"
3,72.4,"O=C(NCC1CC1)c1cc(N2CC[C@H](O)C2)nc(N2CCC[C@@H](c3ccccc3)C2)n1 [Example 40, N-(cyclopropylmethyl)-6-((S)-3-hydroxypyrrolidin-1-yl)-2-((S)-3-phenylpiperidin-1-yl)pyrimidine-4-carboxamide]"
4,251,"O=C(NCC1CC1)c1cc(N2CC[C@H](O)C2)nc(N2CCC[C@H](c3ccccc3)C2)n1 [Example 41, N-(cyclopropylmethyl)-6-((S)-3-hydroxypyrrolidin-1-yl)-2-((R)-3-phenylpiperidin-1-yl)pyrimidine-4-carboxamide]"
5,324,"O=C(NCC1CC1)c1cc(N2CC[C@@H](O)C2)nc(N2CCC[C@H](c3ccccc3)C2)n1 [Example 42, N-(cyclopropylmethyl)-6-((R)-3-hydroxypyrrolidin-1-yl)-2-((R)-3-phenylpiperidin-1-yl)pyrimidine-4-carboxamide]"
6,110,"O=C(NCC1CC1)c1cc(N2CC[C@@H](O)C2)nc(N2CCC[C@@H](c3ccccc3)C2)n1 [Example 43, N-(cyclopropylmethyl)-6-((R)-3-hydroxypyrrolidin-1-yl)-2-((S)-3-phenylpiperidin-1-yl)pyrimidine-4-carboxamide]"
7,479,"C#CCNC(=O)c1cc(N2CC[C@H](O)C2)nc(N2CCN(Cc3ccc(C4(C(F)(F)F)N=N4)cc3)CC2)n1 [Example 44, (S)-6-(3-hydroxypyrrolidin-1-yl)-N-(prop-2-yn-1-yl)-2-(4-(4-(3-(trifluoromethyl)-3H-diazirin-3-yl)benzyl)piperazin-1-yl)pyrimidine-4-carboxamide]"
8,617,"C#CCNC(=O)c1cc(N2CC[C@H](O)C2)nc(N2CCN(C(=O)c3ccc(C4(C(F)(F)F)N=N4)cc3)CC2)n1 [Example 45, (S)-6-(3-hydroxypyrrolidin-1-yl)-N-(prop-2-yn-1-yl)-2-(4-(4-(3-(trifluoromethyl)-3H-diazirin-3-yl)benzoyl)piperazin-1-yl)pyrimidine-4-carboxamide]"
9,209,"O=C(NCC1CC1)c1cc(N2CCOCC2)nc(N2CCC[C@@H](c3ccccc3)C2)n1 [Example 46, (S)-N-(cyclopropylmethyl)-6-morpholino-2-(3-phenylpiperidin-1-yl)pyrimidine-4-carboxamide]"
10,2750,"O=C(NCC1CC1)c1cc(N2CCOCC2)nc(NCCc2ccccc2)n1 [Example 47, N-(cyclopropylmethyl)-6-morpholino-2-(phenethylamino)pyrimidine-4-carboxamide]"
11,9120,"CN(Cc1ccccc1)c1nc(C(=O)NCC2CC2)cc(N2CCOCC2)n1 [Example 48, 2-(benzyl(methyl)amino)-N-(cyclopropylmethyl)-6-morpholinopyrimidine-4-carboxamide]"
12,708,"CN(CCc1ccccc1)c1nc(C(=O)NCC2CC2)cc(N2CCOCC2)n1 [Example 49, N-(cyclopropylmethyl)-2-(methyl(phenethyl)amino)-6-morpholinopyrimidine-4-carboxamide]"
13,282,"CC(C)N(CCc1ccccc1)c1nc(C(=O)NCC2CC2)cc(N2CCOCC2)n1 [Example 50, N-(cyclopropylmethyl)-2-(isopropyl(phenethyl)amino)-6-morpholinopyrimidine-4-carboxamide]"
14,2190,"O=C(NCC1CC1)c1cc(N2CCOCC2)nc(N2CCC(c3ccccc3)C2)n1 (stereo not shown) [Example 51, N-(cyclopropylmethyl)-6-morphol ino-2-(3-phenylpyrrolidin-1-yl)pyrimidine-4-carboxamide]"
15,380,"O=C(NCC1CC1)c1cc(N2CCOCC2)nc(N2CCCC(c3ccccc3)C2)n1 (stereo not shown) [Example 52, N-(cyclopropylmethyl)-6-morphol ino-2-(3-phenylpiperidin-1-yl)pyrimidine-4-carboxamide]"
16,3020,"CN(CCc1ccc(Oc2ccccc2)cc1)c1nc(C(=O)NCC2CC2)cc(N2CCOCC2)n1 [Example 53, N-(cyclopropylmethyl)-2-(methyl(4-phenoxyphenethyl)amino)-6-morpholinopyrimidine-4-carboxamide]"

row,IC50 [nM],Structure (SMILES)
1,741,"O=C(NCC1CC1)c1cc(N2CCOCC2)nc(N2CCCCC2Cc2ccccc2)n1 (stereo not shown) [Example 54, 2-(2-benzylpiperidin-1-yl)-N-(cyclopropylmethyl)-6-morpholinopyrimidine-4-carboxamide]"
2,4070,"CN(CCc1ccccc1)c1cc(C(=O)NCC2CC2)nc(N2CCOCC2)n1 [Example 55, N-(cyclopropylmethyl)-6-(methyl(phenethyl)amino)-2-morpholinopyrimidine-4-carboxamide]"
3,6170,"CN(CCc1ccc(C(F)(F)F)cc1)c1nc(C(=O)NCC2CC2)cc(N2CCOCC2)n1 [Example 56, N-(cyclopropylmethyl)-2-(methyl(4-(trifluoromethyl)phenethyl)amino)-6-morpholino-pyrimidine-4-carboxamide]"
4,6310,"CN(CCc1ccc(Cl)cc1)c1nc(C(=O)NCC2CC2)cc(N2CCOCC2)n1 [Example 57, 2-((4-chlorophenethyl)(methyl)amino)-N-(cyclopropylmethyl)-6-morphol inopyrimidine-4-carboxamide]"
5,3160,"CN(CCCc1ccccc1)c1nc(C(=O)NCC2CC2)cc(N2CCOCC2)n1 [Example 58, N-(cyclopropylmethyl)-2-(methyl(3-phenylpropyl)amino)-6-morpholinopyrimidine-4-carboxamide]"
6,380,"O=C(NCC1CC1)c1cc(N2CCOCC2)nc(N2CCCC2Cc2ccccc2)n1 (stereo not shown) [Example 59, 2-(2-benzylpyrrolidin-1-yl)-N-(cyclopropylmethyl)-6-morpholinopyrimidine-4-carboxamide]"
7,10000,"CN(CCCCc1ccccc1)c1nc(C(=O)NCC2CC2)cc(N2CCOCC2)n1 [Example 60, N-(cyclopropylmethyl)-2-(methyl(4-phenylbutyl)amino)-6-morpholinopyrimidine-4-carboxamide]"
8,3470,"CN(CCc1cccc(Oc2ccccc2)c1)c1nc(C(=O)NCC2CC2)cc(N2CCOCC2)n1 [Example 61, N-(cyclopropylmethyl)-2-(methyl(3-phenoxyphenethyl)amino)-6-morpholinopyrimidine-4-carboxamide]"
9,525,"O=C(NCC1CC1)c1cc(N2CCOCC2)nc(N(CCc2ccccc2)CCc2ccccc2)n1 [Example 62, N-(cyclopropylmethyl)-2-(diphenethylamino)-6-morpholinopyrimidine-4-carboxamide]"
10,2240,"O=C(NCC1CC1)c1cc(N2CCOCC2)nc(N2CCc3ccccc3C2)n1 [Example 63, N-(cyclopropylmethyl)-2-(3,4-dihydroisoquinolin-2(1H)-yl)-6-morphol inopyrimidine-4-carboxamide]"
11,3470,"COc1ccc(CCN(C)c2nc(C(=O)NCC3CC3)cc(N3CCOCC3)n2)cc1 [Example 64, N-(cyclopropylmethyl)-2-((4-methoxyphenethyl)(methyl)amino)-6-morpholinopyrimidine-4-carboxamide]"
12,1120,"O=C(NCC1CC1)c1cc(N2CCOCC2)nc(N(CCc2ccccc2)Cc2ccccc2)n1 [Example 65, 2-(benzyl(phenethyl)amino)-N-(cyclopropylmethyl)-6-morpholinopyrimidine-4-carboxamide]"
13,2450,"CN(CCc1cccc(Cl)c1)c1nc(C(=O)NCC2CC2)cc(N2CCOCC2)n1 [Example 66, 2-((3-chlorophenethyl)(methyl)amino)-N-(cyclopropylmethyl)-6-morpholinopyrimidine-4-carboxamide]"
14,603,"CN(CCc1ccccc1Oc1ccccc1)c1nc(C(=O)NCC2CC2)cc(N2CCOCC2)n1 [Example 67, N-(cyclopropylmethyl)-2-(methyl(2-phenoxyphenethyl)amino)-6-morpholinopyrimidine-4-carboxamide]"
15,977,"CN(CCc1ccccc1Cl)c1nc(C(=O)NCC2CC2)cc(N2CCOCC2)n1 [Example 68, 2-((2-chlorophenethyl)(methyl)amino)-N-(cyclopropylmethyl)-6-morpholinopyrimidine-4-carboxamide]"
